Molecular target: GCN2 (Homo sapiens (Human), UniProt Q9P2K8)
Assay: GCN2 Biochemical Assay (TR-FRET, GFP-eIF2S1 substrate phosphorylation)
Details: read-out: IC50 (GCN2 Inhibitory Activity)
Summary of the method: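 TR-FRET readout (Ex 340, Em 490/520 nm) after 2–3 h with Tb-labelled phospho-eIF2S1 antibody in stop mix, following a 70 min room-temperature kinase step. Reaction: in-house GCN2, GFP-eIF2S1, ATP, tRNA in Tris pH 7.5 (2× stocks 1.6 nM, 50 nM, 0.2 mM); compounds tested at 10 concentrations, with a phospho-substrate artifact counter-plate.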

GCN2, sequence (Q9P2K8 whole entry): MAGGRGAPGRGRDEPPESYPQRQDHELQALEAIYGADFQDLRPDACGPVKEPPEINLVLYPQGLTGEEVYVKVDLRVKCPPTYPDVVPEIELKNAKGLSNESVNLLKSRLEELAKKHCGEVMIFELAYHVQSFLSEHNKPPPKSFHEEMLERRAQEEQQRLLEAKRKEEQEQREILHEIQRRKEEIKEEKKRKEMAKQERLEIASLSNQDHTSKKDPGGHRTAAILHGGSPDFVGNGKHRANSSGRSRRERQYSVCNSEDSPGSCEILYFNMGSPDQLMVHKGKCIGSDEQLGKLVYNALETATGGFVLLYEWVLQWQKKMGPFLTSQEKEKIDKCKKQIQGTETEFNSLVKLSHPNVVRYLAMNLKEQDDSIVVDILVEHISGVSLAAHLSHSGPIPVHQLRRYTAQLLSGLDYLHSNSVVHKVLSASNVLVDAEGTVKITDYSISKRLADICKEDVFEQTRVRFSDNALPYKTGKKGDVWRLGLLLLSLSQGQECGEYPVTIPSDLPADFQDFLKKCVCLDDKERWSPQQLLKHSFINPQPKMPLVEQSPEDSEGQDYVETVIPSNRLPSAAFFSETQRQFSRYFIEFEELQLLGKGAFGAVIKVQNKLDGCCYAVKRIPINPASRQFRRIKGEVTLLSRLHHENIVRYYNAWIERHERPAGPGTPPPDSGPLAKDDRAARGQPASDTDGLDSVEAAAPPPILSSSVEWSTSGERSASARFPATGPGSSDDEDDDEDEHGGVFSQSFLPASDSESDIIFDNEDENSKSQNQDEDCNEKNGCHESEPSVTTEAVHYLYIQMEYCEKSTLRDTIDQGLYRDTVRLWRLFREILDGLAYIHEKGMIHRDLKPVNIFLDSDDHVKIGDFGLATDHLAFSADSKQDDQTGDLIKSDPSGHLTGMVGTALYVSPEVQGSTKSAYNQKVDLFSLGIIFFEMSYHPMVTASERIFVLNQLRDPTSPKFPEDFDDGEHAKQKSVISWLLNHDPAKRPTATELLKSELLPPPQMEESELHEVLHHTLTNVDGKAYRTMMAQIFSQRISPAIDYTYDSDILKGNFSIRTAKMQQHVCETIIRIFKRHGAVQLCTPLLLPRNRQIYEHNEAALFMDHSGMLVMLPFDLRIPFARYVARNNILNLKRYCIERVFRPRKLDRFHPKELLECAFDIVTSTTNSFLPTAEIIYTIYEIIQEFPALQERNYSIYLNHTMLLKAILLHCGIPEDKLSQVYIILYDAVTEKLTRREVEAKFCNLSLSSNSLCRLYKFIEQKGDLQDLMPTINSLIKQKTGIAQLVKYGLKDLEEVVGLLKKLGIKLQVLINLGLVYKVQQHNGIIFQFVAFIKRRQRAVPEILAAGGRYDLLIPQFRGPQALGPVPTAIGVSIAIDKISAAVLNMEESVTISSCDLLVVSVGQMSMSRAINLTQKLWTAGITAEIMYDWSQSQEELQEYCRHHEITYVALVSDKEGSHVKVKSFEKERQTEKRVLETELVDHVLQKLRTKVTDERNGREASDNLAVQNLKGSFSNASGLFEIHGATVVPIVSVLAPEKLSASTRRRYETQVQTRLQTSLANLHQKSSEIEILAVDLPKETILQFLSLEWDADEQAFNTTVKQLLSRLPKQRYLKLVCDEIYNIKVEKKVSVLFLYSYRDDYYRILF

Compound | IC50 [nM]
Cc1cnc(Nc2cc(C)n(C)n2)nc1-c1c[nH]c2c(NC(=O)CN3CC[C@@H](C(=O)N4CCNC(=O)C4)C3)cccc12 [Example 66, (R)-N-(3-(2-((1,5-dimethyl-1H-pyrazol-3-yl)amino)-5-methylpyrimidin-4-yl)-1H-indol-7-yl)-2-(3-(3-oxopiperazine-1-carbonyl)pyrrolidin-1-yl)acetamide] | 100 to 1000
Cc1cnc(Nc2cc(C)n(C)n2)nc1-c1c[nH]c2c(NC(=O)CN3CC[C@@H](C(=O)N4CCOCC4)C3)cccc12 [Example 67, (R)-N-(3-(2-((1,5-dimethyl-1H-pyrazol-3-yl)amino)-5-methylpyrimidin-4-yl)-1H-indol-7-yl)-2-(3-(morpholine-4-carbonyl)pyrrolidin-1-yl)acetamide] | 100 to 1000
Cc1cnc(Nc2cc(C)n(C)n2)nc1-c1c[nH]c2c(NC(=O)CN3CC[C@@H](C(=O)N4CCSCC4)C3)cccc12 [Example 68, (R)-N-(3-(2-((1,5-dimethyl-1H-pyrazol-3-yl)amino)-5-methylpyrimidin-4-yl)-1H-indol-7-yl)-2-(3-(thiomorpholine-4-carbonyl)pyrrolidin-1-yl)acetamide] | 10 to 100
Cc1cnc(Nc2cc(C)n(C)n2)nc1-c1c[nH]c2c(NC(=O)CN3CC[C@H](C(=O)N4CC=CCC4)C3)cccc12 [Example 69, (S)-N-(3-(2-((1,5-dimethyl-1H-pyrazol-3-yl)amino)-5-methylpyrimidin-4-yl)-1H-indol-7-yl)-2-(3-(1,2,3,6-tetrahydropyridine-1-carbonyl)pyrrolidin-1-yl)acetamide] | 10 to 100
Cc1cnc(Nc2cc(C)n(C)n2)nc1-c1c[nH]c2c(NC(=O)CN3CCC(O)C3)cccc12 (centres unmarked) [Example 70, N-(3-(2-((1,5-dimethyl-1H-pyrazol-3-yl)amino)-5-methylpyrimidin-4-yl)-1H-indol-7-yl)-2-(3-hydroxypyrrolidin-1-yl)acetamide] | 10 to 100
Cc1cnc(Nc2cc(C)n(C)n2)nc1-c1c[nH]c2c(NC(=O)CN3CC[C@@H](O)C3)cccc12 [Example 71, (R)-N-(3-(2-((1,5-dimethyl-1H-pyrazol-3-yl)amino)-5-methylpyrimidin-4-yl)-1H-indol-7-yl)-2-(3-hydroxypyrrolidin-1-yl)acetamide] | 10 to 100
Cc1cnc(Nc2cc(C)n(C)n2)nc1-c1c[nH]c2c(NC(=O)CN3CC[C@H](O)C3)cccc12 [Example 72, (S)-N-(3-(2-((1,5-dimethyl-1H-pyrazol-3-yl)amino)-5-methylpyrimidin-4-yl)-1H-indol-7-yl)-2-(3-hydroxypyrrolidin-1-yl)acetamide] | 10 to 100
Cc1cnc(Nc2cc(C)n(C)n2)nc1-c1c[nH]c2c(NC(=O)CN3CC[C@H](Oc4ccccn4)C3)cccc12 [Example 73, (S)-N-(3-(2-((1,5-dimethyl-1H-pyrazol-3-yl)amino)-5-methylpyrimidin-4-yl)-1H-indol-7-yl)-2-(3-(pyridin-2-yloxy)pyrrolidin-1-yl)acetamide] | 10 to 100
Cc1cnc(Nc2cc(C)n(C)n2)nc1-c1c[nH]c2c(NC(=O)CN3CCC(Oc4ccncc4)C3)cccc12 (centres unmarked) [Example 76, N-(3-(2-((1,5-dimethyl-1H-pyrazol-3-yl)amino)-5-methylpyrimidin-4-yl)-1H-indol-7-yl)-2-(3-(pyridin-4-yloxy)pyrrolidin-1-yl)acetamide] | < 10
Cc1cnc(Nc2cc(C)n(C)n2)nc1-c1c[nH]c2c(NC(=O)CN3CC[C@@H](Oc4ccncc4)C3)cccc12 [Example 77, (R)-N-(3-(2-((1,5-dimethyl-1H-pyrazol-3-yl)amino)-5-methylpyrimidin-4-yl)-1H-indol-7-yl)-2-(3-(pyridin-4-yloxy)pyrrolidin-1-yl)acetamide] | 10 to 100
Cc1cnc(Nc2cc(C)n(C)n2)nc1-c1c[nH]c2c(NC(=O)CN3CC[C@H](Oc4ccncn4)C3)cccc12 [Example 78, (S)-N-(3-(2-((1,5-dimethyl-1H-pyrazol-3-yl)amino)-5-methylpyrimidin-4-yl)-1H-indol-7-yl)-2-(3-(pyrimidin-4-yloxy)pyrrolidin-1-yl)acetamide] | < 10
Cc1cnc(Nc2cc(C)n(C)n2)nc1-c1c[nH]c2c(NC(=O)CN3CC[C@H](Oc4cnccn4)C3)cccc12 [Example 79, (S)-N-(3-(2-((1,5-dimethyl-1H-pyrazol-3-yl)amino)-5-methylpyrimidin-4-yl)-1H-indol-7-yl)-2-(3-(pyrazin-2-yloxy)pyrrolidin-1-yl)acetamide] | < 10
Cc1cnc(Nc2cc(C)n(C)n2)nc1-c1c[nH]c2c(NC(=O)CN3CC[C@H](Oc4ccc(F)cc4)C3)cccc12 [Example 80, (S)-N-(3-(2-((1,5-dimethyl-1H-pyrazol-3-yl)amino)-5-methylpyrimidin-4-yl)-1H-indol-7-yl)-2-(3-(4-fluorophenoxy)pyrrolidin-1-yl)acetamide] | 100 to 1000
Cc1cnc(Nc2cc(C)n(C)n2)nc1-c1c[nH]c2c(NC(=O)CN3CC[C@H](Oc4cccc(F)c4)C3)cccc12 [Example 81, (S)-N-(3-(2-((1,5-dimethyl-1H-pyrazol-3-yl)amino)-5-methylpyrimidin-4-yl)-1H-indol-7-yl)-2-(3-(3-fluorophenoxy)pyrrolidin-1-yl)acetamide] | 100 to 1000
Cc1cnc(Nc2cc(C)n(C)n2)nc1-c1c[nH]c2c(NC(=O)CN3CC[C@H](Oc4ccc(Cl)cc4)C3)cccc12 [Example 82, (S)-2-(3-(4-chlorophenoxy)pyrrolidin-1-yl)-N-(3-(2-((1,5-dimethyl-1H-pyrazol-3-yl)amino)-5-methylpyrimidin-4-yl)-1H-indol-7-yl)acetamide] | 100 to 1000
Cc1cnc(Nc2cc(C)n(C)n2)nc1-c1c[nH]c2c(NC(=O)CN3CC[C@H](Oc4ccc(F)cc4F)C3)cccc12 [Example 83, (S)-2-(3-(2,4-difluorophenoxy)pyrrolidin-1-yl)-N-(3-(2-((1,5-dimethyl-1H-pyrazol-3-yl)amino)-5-methylpyrimidin-4-yl)-1H-indol-7-yl)acetamide] | 10 to 100
Cc1cnc(Nc2cc(C)n(C)n2)nc1-c1c[nH]c2c(NC(=O)CN3CC[C@H](Oc4ccc(F)c(F)c4)C3)cccc12 [Example 84, (S)-2-(3-(3,4-difluorophenoxy)pyrrolidin-1-yl)-N-(3-(2-((1,5-dimethyl-1H-pyrazol-3-yl)amino)-5-methylpyrimidin-4-yl)-1H-indol-7-yl)acetamide] | 100 to 1000
Cc1cnc(Nc2cc(C)n(C)n2)nc1-c1c[nH]c2c(NC(=O)CN3CC[C@H](Oc4ccc(F)cc4Cl)C3)cccc12 [Example 85] | 100 to 1000
Cc1cnc(Nc2cc(C)n(C)n2)nc1-c1c[nH]c2c(NC(=O)CN3CC[C@H](Oc4cc(F)cc(F)c4)C3)cccc12 [Example 86] | 100 to 1000
Cc1cnc(Nc2cc(C)n(C)n2)nc1-c1c[nH]c2c(NC(=O)CN3CC[C@H](Oc4ccc(F)c(N)c4)C3)cccc12 [Example 87, (S)-2-(3-(3-amino-4-fluorophenoxy)pyrrolidin-1-yl)-N-(3-(2-((1,5-dimethyl-1H-pyrazol-3-yl)amino)-5-methylpyrimidin-4-yl)-1H-indol-7-yl)acetamide] | 10 to 100
CCN(CC)c1cccc(O[C@H]2CCN(CC(=O)Nc3cccc4c(-c5nc(Nc6cc(C)n(C)n6)ncc5C)c[nH]c34)C2)c1 [Example 88] | 100 to 1000
Cc1cnc(Nc2cc(C)n(C)n2)nc1-c1c[nH]c2c(NC(=O)CN3CC[C@H](Oc4cccc(N)c4)C3)cccc12 [Example 89] | 100 to 1000
Cc1cnc(Nc2cc(C)n(C)n2)nc1-c1c[nH]c2c(NC(=O)CN3CC[C@H](Oc4ccnc(N)c4)C3)cccc12 [Example 90] | < 10

Reference: patent publication US20240025884A1 (Dong-A ST Co., Ltd., priority 2022, published 2024)
